Test results: patent publication US20220024921A1, “1,3,4-OXADIAZOLONE COMPOUND AND PHARMACEUTICAL” (NIPPON SHINYAKU CO., LTD., priority 2018, published 2022)
Where a name gives a salt, the structure may show the parent alone.

How the values were obtained:
[1] = biological target: PIM1 transgenic cells (Ba/F3) (Homo sapiens, UniProt P11309); test: Proliferation inhibitory effect on PIM1 transgenic cells; type: cell-based, mouse; details: proliferation inhibition, 72 hours, Cell Counting Kit-8, read-out: PIM1 IC50
Chain of PIM1 transgenic cells (Ba/F3) (P11309 whole entry, stated change not applied): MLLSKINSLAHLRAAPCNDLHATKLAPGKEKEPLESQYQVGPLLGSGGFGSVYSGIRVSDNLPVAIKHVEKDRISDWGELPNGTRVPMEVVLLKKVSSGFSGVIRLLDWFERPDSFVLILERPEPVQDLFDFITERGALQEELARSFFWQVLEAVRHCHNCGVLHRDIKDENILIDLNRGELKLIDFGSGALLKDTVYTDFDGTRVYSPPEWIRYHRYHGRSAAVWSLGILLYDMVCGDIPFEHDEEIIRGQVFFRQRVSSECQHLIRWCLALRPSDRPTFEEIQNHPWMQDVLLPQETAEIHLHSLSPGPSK
How it was run: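 Mouse Ba/F3 pro-B cells were retrovirally transduced with human PIM1 so that their proliferation depends on PIM1. Cells were treated with compound at 1–10000 nM final for 72 h, then read by CCK-8 (OD450−OD650). Inhibition was set against DMSO (0%) and no-cell blank (100%), and IC50 was obtained by two-parameter logistic regression.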

[2] = biological target: T1, PIM1 serine/threonine kinase (Homo sapiens, UniProt P11309); test: PIM1 serine/threonine kinase inhibitory effect; type: biochemical; details: PIM1 serine/threonine kinase activity; ATP 40 μM; 30° C., 30 minutes
T1 construct: purchased Carna Bioscience, Inc
T1 sequence (P11309 whole entry): as the sequence (P11309 whole entry, stated change not applied) above
How it was run: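 Compounds were tested in duplicate from 0.01 to 10000 nM final against PIM1 kinase (0.15 μg/ml). The reaction ran for 30 minutes at 30° C with 40 μM ATP and 0.5 μM biotin-tagged substrate at pH 7.0. Phosphorylation was read by time-resolved FRET (OD665/OD620) after 1 h; IC50 by non-linear fit.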

[3] = system: graft-versus-host disease model CB6F1 mice; test: Lymphocyte proliferation inhibitory effect using graft-versus-host disease model animals (splenomegaly formation); type: in vivo; details: Mus musculus, 240 h, oral, twice a day for 10 days, GVHD model CB6F1 mice, read-out: Inhibition rate (%) (splenomegaly formation); for inhibition in vivo at 30 mg/kg: single dose 30 mg/kg; for inhibition in vivo at 10 mg/kg: single dose 10 mg/kg; for inhibition in vivo at 20 mg/kg: single dose 20 mg/kg
Procedure: BALB/c mice (8-week-aged female) were euthanized, and then the spleen was removed from each mouse. Then, hemolysis treatment was performed to isolate spleen cells. The obtained spleen cells were intravenously transplanted into CB6F1 mice (8-week-aged female), which are C57BL/6 and BALB/c F1 mice, to prepare a model, and splenomegaly was induced. For transplantation, spleen cells for 1.2 BALB/c mouse were used for one CB6F1 mouse.
Each test substance shown in Table 64 was weighed and dissolved in a 0.5% methyl cellulose solution, thereby preparing test substance solutions of 0.3 to 10 mg/mL.
A vehicle (0.5% methyl cellulose solution) or test substance was orally administered to each CB6F1 mouse after transplantation at a dose of 3 to 50 mg/kg in terms of body weight twice a day for 10 days from the day after transplantation. The mouse was euthanized on the 11th day from the start of administration, then the spleen was removed therefrom, and the wet weight of the spleen was measured. For each of CB6F1 mice that had not undergone transplantation as a control group, the wet weight of the spleen was also measured.
The splenomegaly formation inhibition rate when the spleen weights of the mice to which the vehicle was administered after transplantation and the mice on which transplantation had not been performed were 0% and 100%, respectively, was calculated.

C[C@H](Nc1cc(-c2n[nH]c(=O)o2)cc(Br)c1Cl)C1CCNCC1 [Example 97, 5-(3-bromo-4-chloro-5-{[(1S)-1-(piperidin-4-yl)ethyl]amino}phenyl)-1,3,4-oxadiazol-2(3H)-one dihydrochloride]
GI50 [1]: 55 nM | IC50 [2]: 1.2 nM | inhibition in vivo at 50 mg/kg ([3]; single dose 50 mg/kg): 33%

C[C@H](Nc1cc(-c2n[nH]c(=O)o2)ccc1C(F)(F)F)[C@H]1CC[C@H](N)CC1 [Example 106, 5-[3-({(1S)-1-[(1r,4S)-4-aminocyclohexyl]ethyl}amino)-4-(trifluoromethyl)phenyl]-1,3,4-oxadiazol-2(3H)-one hydrochloride]
GI50 [1]: 19 nM | IC50 [2]: 1.5 nM | inhibition in vivo at 30 mg/kg [3]: 39.8%

C[C@H](Nc1cc(-c2n[nH]c(=O)o2)ccc1C(F)(F)F)C1(F)CCNCC1 [Example 125, 5-[3-{[(1S)-1-(4-fluoropiperidin-4-yl)ethyl]amino}-4-(trifluoromethyl)phenyl]-1,3,4-oxadiazol-2(3H)-one hydrochloride]
GI50 [1]: 40 nM | IC50 [2]: 2.9 nM | inhibition in vivo at 30 mg/kg [3]: 45.1%

C[C@H](Nc1cc(-c2n[nH]c(=O)o2)ccc1C(F)(F)F)[C@@H]1C[C@H](N)C1(C)C [Example 137, 5-[3-({(1S)-1-[(1R,3S)-3-amino-2,2-dimethylcyclobutyl]ethyl}amino)-4-(trifluoromethyl)phenyl]-1,3,4-oxadiazol-2(3H)-one hydrochloride]
GI50 [1]: 27 nM | IC50 [2]: 2.2 nM | inhibition in vivo at 30 mg/kg [3]: 47.5%

C[C@H](Nc1cc(-c2n[nH]c(=O)o2)ccc1C(F)(F)F)[C@H]1C[C@@H](N)C1 [Example 145, 5-[3-({(1S)-1-[(1s,3R)-3-aminocyclobutyl]ethyl}amino)-4-(trifluoromethyl)phenyl]-1,3,4-oxadiazol-2(3H)-one hydrochloride]
GI50 [1]: 61 nM | IC50 [2]: 4 nM | inhibition in vivo at 10 mg/kg [3]: 27.3% | inhibition in vivo at 20 mg/kg [3]: 35.6%

C[C@H](Nc1cc(-c2n[nH]c(=O)o2)cc(F)c1C(F)(F)F)[C@H]1CC[C@H](N)CC1 [Example 151, 5-[3-({(1S)-1-[(1r,4S)-4-aminocyclohexyl]ethyl}amino)-5-fluoro-4-(trifluoromethyl)phenyl]-1,3,4-oxadiazol-2(3H)-one hydrochloride]
GI50 [1]: 17 nM | IC50 [2]: 1.8 nM | inhibition in vivo at 10 mg/kg [3]: 33.8% | inhibition in vivo at 20 mg/kg [3]: 40.3%

Cc1c(F)cc(-c2n[nH]c(=O)o2)cc1N[C@@H](C)[C@H]1CC[C@H](N)CC1 [Example 172, 5-[3-({(1S)-1-[(1r,4S)-4-aminocyclohexyl]ethyl}amino)-5-fluoro-4-methylphenyl]-1,3,4-oxadiazol-2(3H)-one dihydrochloride]
GI50 [1]: 49 nM | IC50 [2]: 2.5 nM | inhibition in vivo at 20 mg/kg [3]: 19.3%

C[C@H](Nc1cc(-c2n[nH]c(=O)o2)cc(F)c1Cl)[C@H]1CC[C@H](N)CC1 [Example 177, 5-[3-({(1S)-1-[(1r,4S)-4-aminocyclohexyl]ethyl}amino)-4-chloro-5-fluorophenyl]-1,3,4-oxadiazol-2(3H)-one hydrochloride]
GI50 [1]: 26 nM | IC50 [2]: 0.8 nM | inhibition in vivo at 10 mg/kg [3]: 23.7% | inhibition in vivo at 20 mg/kg [3]: 39.2%

C[C@@H]1CNCC[C@@H]1[C@H](C)Nc1cc(-c2n[nH]c(=O)o2)cc(F)c1C(F)(F)F [Example 210, 5-[3-fluoro-5-({(1S)-1-[(3S,4S)-3-methylpiperidin-4-yl]ethyl}amino)-4-(trifluoromethyl)phenyl]-1,3,4-oxadiazol-2(3H)-one]
GI50 [1]: 15 nM | IC50 [2]: 1.3 nM | inhibition in vivo at 10 mg/kg [3]: 44.9% | inhibition in vivo at 20 mg/kg [3]: 48.4%

C[C@@H]1CNCC[C@@H]1[C@H](C)N1CCC(=O)c2c(F)cc(-c3n[nH]c(=O)o3)cc21 [Example 245, 5-fluoro-1-{(1S)-1-[(3S,4S)-3-methylpiperidin-4-yl]ethyl}-7-(5-oxo-4,5-dihydro-1,3,4-oxadiazol-2-yl)-2,3-dihydroquinolin-4(1H)-one hydrochloride]
GI50 [1]: 3200 nM | IC50 [2]: 4.2 nM

CO/N=C1\CCN([C@@H](C)[C@H]2CCNC[C@H]2C)c2cc(-c3n[nH]c(=O)o3)cc(F)c21 [Example 246, 5-[(4E)-5-fluoro-4-(methoxyimino)-1-{(1S)-1-[(3S,4S)-3-methylpiperidin-4-yl]ethyl}-1,2,3,4-tetrahydroquinolin-7-yl]-1,3,4-oxadiazol-2(3H)-one hydrochloride]
GI50 [1]: 4900 nM | IC50 [2]: 1.9 nM

C[C@@H]([C@H]1CC[C@H](N)CC1)N1CCOc2ccc(-c3n[nH]c(=O)o3)cc21 [Example 247, 5-(4-{(1S)-1-[(1r,4S)-4-aminocyclohexyl]ethyl}-3,4-dihydro-2H-1,4-benzoxazin-6-yl)-1,3,4-oxadiazol-2(3H)-one]
GI50 [1]: 120 nM | IC50 [2]: 2.8 nM

C[C@@H](C1CCNCC1)N1CCOc2c(F)cc(-c3n[nH]c(=O)o3)cc21 [Example 248, 5-{8-fluoro-4-[(1S)-1-(piperidin-4-yl)ethyl]-3,4-dihydro-2H-1,4-benzoxazin-6-yl}-1,3,4-oxadiazol-2(3H)-one]
GI50 [1]: 250 nM | IC50 [2]: 10 nM

C[C@@H]([C@H]1CC[C@H](N)CC1)N1CCOc2c(F)cc(-c3n[nH]c(=O)o3)cc21 [Example 249, 5-(4-{(1S)-1-[(1r,4S)-4-aminocyclohexyl]ethyl}-8-fluoro-3,4-dihydro-2H-1,4-benzoxazin-6-yl)-1,3,4-oxadiazol-2(3H)-one]
GI50 [1]: 110 nM | IC50 [2]: 4.2 nM

C[C@@H]1CN([C@@H](C)C2CCNCC2)c2cc(-c3n[nH]c(=O)o3)cc(F)c2O1 [Example 250, 5-{(2R)-8-fluoro-2-methyl-4-[(1S)-1-(piperidin-4-yl)ethyl]-3,4-dihydro-2H-1,4-benzoxazin-6-yl}-1,3,4-oxadiazol-2(3H)-one]
GI50 [1]: 190 nM | IC50 [2]: 5.7 nM

C[C@H]1CN([C@@H](C)C2CCNCC2)c2cc(-c3n[nH]c(=O)o3)cc(F)c2O1 [Example 251, 5-{(2S)-8-fluoro-2-methyl-4-[(1S)-1-(piperidin-4-yl)ethyl]-3,4-dihydro-2H-1,4-benzoxazin-6-yl}-1,3,4-oxadiazol-2(3H)-one]
GI50 [1]: 260 nM | IC50 [2]: 12 nM

CC1CN(C(C)C2CCC(N)CC2)c2cc(-c3n[nH]c(=O)o3)cc(F)c2O1 [Example 252, 5-[(2S)-4-{(1S)-1-[(1r,4S)-4-aminocyclohexyl]ethyl}-8-fluoro-2-methyl-3,4-dihydro-2H-1,4-benzoxazin-6-yl]-1,3,4-oxadiazol-2(3H)-one hydrochloride]
GI50 [1]: 210 nM | IC50 [2]: 6.6 nM

C[C@@H]1CN([C@@H](C)[C@H]2CC[C@H](N)CC2)c2cc(-c3n[nH]c(=O)o3)cc(F)c2O1 [Example 253, 5-[(2R)-4-{(1S)-1-[(1r,4S)-4-aminocyclohexyl]ethyl}-8-fluoro-2-methyl-3,4-dihydro-2H-1,4-benzoxazin-6-yl]-1,3,4-oxadiazol-2(3H)-one hydrochloride]
GI50 [1]: 81 nM | IC50 [2]: 3 nM

C[C@@H](C1CCNCC1)N1CCCOc2c(F)cc(-c3n[nH]c(=O)o3)cc21 [Example 254, 5-{9-fluoro-5-[(1S)-1-(piperidin-4-yl)ethyl]-2,3,4,5-tetrahydro-1,5-benzoxazepin-7-yl}-1,3,4-oxadiazol-2(3H)-one hydrochloride]
GI50 [1]: 680 nM | IC50 [2]: 15 nM
